Test results published in paper PMC12525650, “Pharmacokinetic Profile of Extracts from the Chayote (Sechium edule) H387 07 Hybrid and Phytochemical Characterization of Its Segregant H387 M16 for Potential Therapeutic Applications” (Molecules, 2025).
Like-named read-outs stand apart in the source and are kept apart here.

Columns and labels:
[1] = in vivo; parameters: species or system female CD-1 mice (Mus musculus L.)
Procedure: Pharmacokinetic parameters were evaluated in female CD-1 mice (Mus musculus L.) provided by the vivarium of the Faculty of Higher Studies, Zaragoza, National Autonomous University of Mexico. All mice were clinically healthy, approximately 12 weeks old, and weighed ~30 g. […] Female mice were selected as the available cohort from the institutional vivarium, and their use allowed us to establish baseline pharmacokinetic parameters under standardized conditions. […] Animals were randomly assigned to treatment groups. Treatment allocation and sample collection were blinded. All experimental procedures were approved by the Research Ethics Committee of the Faculty of Higher Studies, Zaragoza (FESZ/CEI/1/1/5/27/23).
For the HPLC quantification of metabolites, concentrations were expressed as µg/mL for serum and urine and as µg/mg of tissue for liver samples. The results were translated into graphical form using the identified metabolites. The Cmax and time to reach maximum concentration (Tmax) of the secondary metabolites were obtained directly from the concentration–time curve.
The area under the plasma concentration–time curve from time zero to the last measurable concentration ( AUC0−t ) was calculated using the linear trapezoidal rule, according to the following formula: AUC0−t=∑i=1n−1Ci+Ci+1/2×ti+1−ti where Ci and Ci+1 are the plasma concentrations at consecutive time points ti and ti+1 . The total area under the curve ( AUC0−∞ ) was obtained as the sum of AUC0−t and the extrapolated area from the last measurable concentration to infinity, calculated as:(1) AUC0−∞=AUC0−t+Clast/kel where Clast is the final observed concentration and kel is the terminal final elimination constant estimated from the slope of the log-linear portion of the concentration–time curve.

[2] = cited from earlier work
[3] = cited from earlier work; remark: listed apart in the source
[4] = female, CD-1, mouse, in vivo, po, 8 mg/kg
[5] = mice, serum, oral extract 8, 125, 250 mg/kg, 1, 6, 24, 48 h
[6] = mice, liver, oral extract 8, 125, 250 mg/kg, 1, 6, 24, 48 h
[7] = mice, oral extract 8, 125, 250 mg/kg, 1, 6, 24, 48 h
[8] = mice, plasma, oral extract 8 mg/kg

Work on O=c1cc(-c2ccc(O)cc2)oc2cc(O)cc(O)c12 [Apigenin] yielded an AUC [1, 4] of 2390 ± 210 ng·h/mL, an AUC(0-t) [1, 4] of 2120 ng·h/mL and a Clearance [1, 4] of 0.82 L/h/kg. The Cmax [1, 4] was 850 ± 70 ng/mL, the T1/2 [1, 4] was “greater than 5.6 h” and the Vd [1, 4] was 3.4 ± 0.5 L/kg. For the same compound, the half-life ([1]; female, CD-1, mouse, in vivo, po, 8 mg/kg, T1/2) was 336 ± 18 min, the Tmax ([1]; female, CD-1, mouse, in vivo, po, 8 mg/kg, Tmax) was 1.5 ± 0.3 h and the “serum concentration, change with dose and time” value (“serum concentration, change” for short) [1, 5] was “significantly increased with the 125 mg/kg doses at 24 and 48 h”. For the same compound, the T1/2 ([2]; reported in rats) was 1.8 to 4.2 h.

In the case of CC(C)(O)/C=C/C(=O)[C@](C)(O)[C@H]1[C@H](O)C[C@@]2(C)[C@@H]3CC=C4[C@@H](C[C@H](O)C(=O)C4(C)C)[C@]3(C)C(=O)C[C@]12C [CuD, Cucurbitacin D], the Tmax ([1]; female, CD-1, mouse, in vivo, mice, serum/plasma, oral extract 125 mg/kg, read-out: Tmax) is reported as 24 h and the “liver concentration, change with dose and time” value (from here on “liver concentration, change”) [1, 6] is reported as “no significant variations”.

With CC(C)(O)/C=C/C(=O)[C@](C)(O)[C@H]1[C@H](O)C[C@@]2(C)[C@@H]3CC=C4[C@@H](C=C(O)C(=O)C4(C)C)[C@]3(C)C(=O)C[C@]12C [CuI, cucurbitacin I] the “liver concentration, change” value [1, 6] was “no significant variations”, the liver concentration ([1]; mice, liver, oral extract 125 and 250 mg/kg) was over 20 µg/mg and the “serum concentration, change” value [1, 5] was “concentrations remained near the limit of quantification”.

In the case of CC(=O)OC(C)(C)CCC(=O)[C@](C)(O)[C@H]1[C@H](O)C[C@@]2(C)[C@@H]3CC=C4[C@@H](C[C@H](O)[C@@H](O)C4(C)C)[C@]3(C)C(=O)C[C@]12C [CuIIA, cucurbitacin IIA], the “time of absorption (Tmax) in previous reports” value [3] is listed as ~ 20 min, the “liver concentration, change” value [1, 6] is listed as “remained significant for up to 48 h with the 250 mg/kg treatment” and the “serum Tmax” value ([1]; mice, serum, across all doses (8, 125, 250 mg/kg)) is listed as 24 h. The “serum concentration, change” value [1, 5] was “transient decrease to near-zero concentrations at 6 h, followed by a marked increase at 24 h” and the “urine concentration, change with dose and time” value (from here on “urine concentration, change”) [1, 7] was “high concentrations were observed in urine”.

For CC(=O)OC(C)(C)/C=C/C(=O)[C@](C)(O)[C@H]1[C@H](O)C[C@@]2(C)[C@@H]3CC=C4[C@@H](C=C(O)C(=O)C4(C)C)[C@]3(C)C(=O)C[C@]12C [Cucurbitacin E, cucurbitacin E], the peak plasma concentration ([3]; at 2 h post-dose) is listed as “approximately 0.009 µg/mL”, the Cmax ([1]; female, CD-1, mouse, in vivo, po, 8 mg/kg, read-out: Cmax) is listed as 420 ng/mL and the Tmax ([1]; female, CD-1, mouse, in vivo, mice, plasma, oral extract 8 mg/kg, Table S1, unit inferred, read-out: Tmax) is listed as 2.5 ± 0.3 h. It also gave an AUC(0-t) ([1]; female, CD-1, mouse, in vivo, mice, plasma, oral extract 8 mg/kg, read-out: AUC0−t) of 1450 ± 110 ng·h/mL, an AUC ([1]; female, CD-1, mouse, in vivo, mice, plasma, oral extract 8 mg/kg, read-out: AUC0 ∞) of 1800 ng·h/mL and a half-life ([1]; female, CD-1, mouse, in vivo, mice, plasma, oral extract 8 mg/kg, read-out: T1/2 (converted)) of 504 ± 72 min. The “liver concentration, change” value [1, 6] was “no significant variations”, the Clearance [1, 8] was 0.65 L/h/kg and the Vd [1, 8] was 4.8 L/kg. For the same compound, the “urine concentration, change” value [1, 7] was “clear increase under the 8 mg/kg treatment”.

With O=C1C[C@@H](c2ccc(O)cc2)Oc2cc(O)cc(O)c21 [Naringenin] the “liver concentration, change” value ([1]; female, CD-1, mouse, in vivo) was “significantly decreased after 24–48 h with the 8 mg/kg dose”.

For O=C(CCc1ccc(O)cc1)c1c(O)cc(O)cc1O [Phloretin], the “liver concentration, change” value ([1]; female, CD-1, mouse, in vivo) was “increased significantly with a dose of 125 mg/kg at 6 and 48 h post-treatment”, the “serum concentration, change” value ([1]; female, CD-1, mouse, in vivo) was “decreased between 6 and 24 h at 125 mg/kg” and the Tmax ([1]; female, CD-1, mouse, plasma, po, 8 mg/kg, mice, plasma, oral extract 8 mg/kg, Table S1, unit inferred, read-out: Tmax) was 2 ± 0.4 h. The half-life ([1]; female, CD-1, mouse, plasma, po, 8 mg/kg, mice, plasma, oral extract 8 mg/kg, read-out: T1/2 (converted)) was 252 ± 36 min, the Tmax ([1]; female, CD-1, mouse, plasma, po, 8 mg/kg, mice, plasma, oral extract 8 mg/kg, read-out: Tmax) was 4.2 h and the Cmax ([1]; female, CD-1, mouse, plasma, po, 8 mg/kg, read-out: Cmax) was 1120 ng/mL. It also gave an AUC(0-t) ([1]; female, CD-1, mouse, mice, plasma, oral extract 8 mg/kg, read-out: AUC0−t) of 3450 ± 310 ng·h/mL, an AUC ([1]; female, CD-1, mouse, mice, plasma, oral extract 8 mg/kg, read-out: AUC0 ∞) of 6100 ng·h/mL and a Clearance [1, 8] of 0.82 L/h/kg. It also gave a Vd [1, 8] of 0.95 L/kg.

With C[C@@H]1O[C@@H](OC[C@H]2O[C@@H](Oc3c(-c4ccc(O)c(O)c4)oc4cc(O)cc(O)c4c3=O)[C@H](O)[C@@H](O)[C@@H]2O)[C@H](O)[C@H](O)[C@H]1O [Rutin] the “serum concentration, change” value [1, 5] was “marked decrease at the 250 mg/kg dose”.

In the case of O=c1cc(-c2ccc(O)cc2)oc2cc(O[C@@H]3O[C@H](CO)[C@@H](O)[C@H](O)[C@H]3O)cc(O)c12 [apigenin-7-O-β-D-glucoside, reference compound], the “AUC0−t” value ([2]; rat, in vivo, iv) is listed as 0.68 to 1.56 µg·h/mL.

With COc1ccc([C@@H]2CC(=O)c3c(O)cc(O[C@@H]4O[C@H](CO[C@@H]5O[C@@H](C)[C@H](O)[C@@H](O)[C@H]5O)[C@@H](O)[C@H](O)[C@H]4O)cc3O2)cc1O [hesperidin] the “urine concentration, change” value [1, 7] was “increased under the 8 mg/kg dose at 6 and 24 h”.
